We go through two compounds from ChEMBL document CHEMBL6109089, “Design, synthesis and optimization of Apcin analogues as Cdc20 inhibitors for triple-negative breast cancer therapy” (Eur J Med Chem, 2025).

Data set [1] deals with MDA-MB-231. In words: Induction of apoptosis in human MDA-MB-231 cells assessed as necrotic cells at 300 uM incubated for 24 hrs by Annexin V-FITC/PI staining based flow cytometry analysis (reference value: 0.033%). The class given is functional. (A flow cytometer gives signals particle by particle.)
The nature of data set [2]: Antiproliferative activity against human MCF-10A cells assessed as inhibition of cell growth measured after 48 hrs by CCK-8 method. In kind it is toxicity, cell-based.
The subject of data set [3] is MDA-MB-231. In words: Induction of apoptosis in human MDA-MB-231 cells assessed as early apoptotic cells at 300 uM incubated for 24 hrs by Annexin V-FITC/PI staining based flow cytometry analysis (reference value: 5.40%). In kind it is functional.
Data set [4] relates to MDA-MB-231. In words: Induction of apoptosis in human MDA-MB-231 cells assessed as late apoptotic cells at 300 uM incubated for 24 hrs by Annexin V-FITC/PI staining based flow cytometry analysis (reference value: 0.46%). In kind it is functional.
Data set [5] is described as follows: Selectivity index, ratio of IC50 for antiproliferative activity against human MCF7 cells to IC50 for antiproliferative activity against human MDA-MB-231 cells. In kind it is cell-based.
Data set [6] has as its system HeLa. In words: cells. The following applies: Homo sapiens, 48 h.
Description: Antiproliferative activity against human HeLa cells assessed as inhibition of cell growth measured after 48 hrs by CCK-8 method
In data set [7] the test system is MDA-MB-231. In words: Induction of apoptosis in human MDA-MB-231 cells assessed as viable cells at 300 uM incubated for 24 hrs by Annexin V-FITC/PI staining based flow cytometry analysis (reference value: 94.1%). The class given is functional. The following applies: read-out: Activity.
Data set [8] relates to MDA-MB-231. In words: cells. The following applies: Homo sapiens, MDA-MB-231, 48 h.
Description: Antiproliferative activity against human MDA-MB-231 cells assessed as inhibition of cell growth measured after 48 hrs by CCK-8 method
Data set [9] has as its target Cell division cycle protein 20 homolog (Homo sapiens, UniProt Q12834). In words: Binding affinity to Cdc20 (unknown origin) assessed as dissociation constant measured after 360 secs by surface plasmon resonance assay.
The test system of data set [10] is MDA-MB-436. In words: cells. The following applies: Homo sapiens, MDA-MB-436, 48 h.
Description: Antiproliferative activity against human MDA-MB-436 cells assessed as inhibition of cell growth measured after 48 hrs by CCK-8 method
The subject of data set [11] is MCF7. In words: cells. The following applies: Homo sapiens, MCF7, 48 h.
Description: Antiproliferative activity against human MCF7 cells assessed as inhibition of cell growth measured after 48 hrs by CCK-8 method
Data set [12] concerns MDA-MB-231. In words: Induction of cell cycle arrest in human MDA-MB-231 cells assessed as increase in accumulation of cells at G2/M phase at 300 uM measured after 24 hrs by PI staining based flow cytometry analysis (reference value: 26.38%). In kind it is functional.
Data set [13] in a line: Antiproliferative activity against rat H9c2 cells assessed as inhibition of cell growth measured after 48 hrs by CCK-8 method. The class given is toxicity, cell-based. Background: Tetrazolium assays rely on reduction of a dye to a coloured formazan, in cell work by metabolically active cells.
Data set [14] in a line: Selectivity index, ratio of IC50 for antiproliferative activity against human MCF-10A cells to IC50 for antiproliferative activity against human MDA-MB-231 cells. In kind it is toxicity, cell-based. The following applies: MCF-10A cells and MDA-MB-231 cells, read-out: Ratio IC50.
Data set [15] deals with MDA-MB-231. In words: Antitumor activity against human MDA-MB-231 cells xenografted in BALB/c nude mouse model assessed as reduction in tumor growth at 30 mg/kg, ip administered daily for 18 days by vernier caliper method relative to control. The class given is functional. More on the design: scale not given: the % may be the effect or the level left. The following applies: time 18 day. (In xenograft studies the graft and the host belong to different species.)

Data set [16] in a line: Antiproliferative activity against human HK-2 cells assessed as inhibition of cell growth measured after 48 hrs by CCK-8 method. The class given is toxicity, cell-based.
Data set [17] deals with SiHa. In words: cells. The following applies: Homo sapiens, 48 h.
Description: Antiproliferative activity against human SiHa cells assessed as inhibition of cell growth measured after 48 hrs by CCK-8 method
The subject of data set [18] is HeLa. In words: Antiproliferative activity against human HeLa cells measured after 48 hrs by CCK-8 method.

Cell division cycle protein 20 homolog, sequence (Q12834 whole entry): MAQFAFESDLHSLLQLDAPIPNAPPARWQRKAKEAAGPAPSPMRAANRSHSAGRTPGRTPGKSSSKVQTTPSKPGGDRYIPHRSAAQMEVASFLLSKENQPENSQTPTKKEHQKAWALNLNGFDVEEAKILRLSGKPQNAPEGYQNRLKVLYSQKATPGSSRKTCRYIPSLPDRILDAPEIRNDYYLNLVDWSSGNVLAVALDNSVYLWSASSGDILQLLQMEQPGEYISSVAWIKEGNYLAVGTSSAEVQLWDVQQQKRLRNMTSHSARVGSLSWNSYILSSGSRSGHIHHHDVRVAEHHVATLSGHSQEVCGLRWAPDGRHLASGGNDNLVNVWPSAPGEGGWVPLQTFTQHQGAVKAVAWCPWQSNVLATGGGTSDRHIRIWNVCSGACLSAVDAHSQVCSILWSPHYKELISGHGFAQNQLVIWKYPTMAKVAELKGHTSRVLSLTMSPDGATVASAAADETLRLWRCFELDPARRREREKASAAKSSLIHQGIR

In general, IC50 refers to the point on the concentration scale where inhibition reaches its midpoint. By Kd is commonly meant the equilibrium constant for the complex coming apart. Consider `Cc1ncc([N+](=O)[O-])n1CCOC(=O)NC(Nc1ncccn1)C(Cl)(Cl)Cl` (stereo not drawn), for which the Activity in [1] is 0.7%; in data set [3], 38.6%; in [4] it was 0.95%; in [12], 38.8%; in [15] it was 53%. Besides, the IC50 at 48 h in data set [2] stood at 161 µM; in data set [13], 252 µM; in data set [16], 151 µM. Further, the “Ratio IC50” value in data set [5] came to 1.53. For the same compound, the IC50 in data set [6] came to 198 µM; in data set [8], 192 µM; in data set [10], 176 µM; in [11] it was 292 µM; in data set [17], 203 µM. In addition, the viability at 300 µM in data set [7] is 59.7%. Also, in data set [9], the Kd was determined as 236 µM. The selectivity ratio in data set [14] came to 0.84.

The compound `Nc1nc(F)nc2c1ncn2C(NC(=O)NCCN1CCOCC1)C(Cl)(Cl)Cl` (stereo not drawn) came in with an IC50 in data set [18] of 0.06 µM.
